Where two headings read alike, the source gives them in different places.
How the values were obtained:
common cold = assay: inventor's self-use of CLO2 to prevent the common cold; type: in vivo, human; conditions: 5 ppm CLO2 nasal drops only, several drops per nostril 2 times per day, 3 days from prodromal period; one person
SARS CoV-2 = conditions: in vivo
[1] = chicken; in drinking water up to several months; doses as high as 1000 mg/liter (1000 ppm or 0.1%); cited from earlier work
[2] = mouse; in drinking water up to several months; doses as high as 1000 mg/liter (1000 ppm or 0.1%); cited from earlier work
Coronavirus SARS CoV-2 = conditions: Fact Sheet, National Agricultural Biosecurity Center, Kansas State University; cited from earlier work
[3] = rat; in drinking water up to several months; doses as high as 1000 mg/liter (1000 ppm or 0.1%); cited from earlier work
[4] = OSHA, cited from earlier work
human Coronavirus = conditions: BASF Aseptrol Label, EPA Registration Number 70060-19; cited from earlier work
[5] = man; daily ingestion of 500 ml CLO2 at 5 ppm; cited from earlier work

[O][Cl+][O-] [CLO2, chlorine dioxide]
development of a common cold (common cold): a cold never developed
lung irritation after inhalation of aerosol fog (SARS CoV-2): no resulting lung irritation
symptoms after contracting SARS CoV-2 (SARS CoV-2): only little to slight symptoms
methemoglobin concentrations [1]: no significant increases
methemoglobin concentrations [2]: no significant increases
virucidal activity against SARS CoV-2 (Coronavirus SARS CoV-2): kills the Coronavirus SARS CoV-2
methemoglobin concentrations [3]: no significant increases
concentration safe for an 8-hour exposure ([4]; 8-hour exposure): 0.1 ppm
concentration safe for short-time exposure limit (STEL) ([4]; STEL of 15 minutes): 0.3 ppm
efficacy against human Coronavirus (human Coronavirus): effective against human Coronavirus
tolerability of daily ingestion [5]: safely tolerated

[O-][Cl+2]([O-])O [CLO3]
methemoglobin concentrations [1]: no significant increases
methemoglobin concentrations [2]: no significant increases
methemoglobin concentrations [3]: no significant increases
